In US20050250801A1, “Method of treating cancer with azaspirane compositions” (priority 2003, published 2005):
Where two headings read alike, the source gives them in different places.

What was measured:
Experiment in all cases: NCI in vitro SRB assay, Breast Cancer
Type in all cases: cell-based
BT-549 = test system: BT-549
Description: (§1) An in vitro assay which tested the ability of N,N,-diethyl-8,8-dipropyl-2-azaspiro[4,5]decane-2-propanamine dimaleate (Compound 1) to inhibit the growth of known cancer cell lines was performed by the National Cancer Institute in accordance with standard procedures. See: Lin, Z. X., Hoult, J. R., and Raman, A. Sulphorhodamine B assay for measuring proliferation of a pigmented melanocyte cell line and its application to the evaluation of crude drugs used in the treatment of vitiligo. J Ethnopharmacol. 66: 141-150, 1999. Briefly, selected tumor cell lines were cultured in media containing five different concentrations of Compound 1. After 48 hours of continuous exposure, a sulforhodamine B (SRB) assay was used to estimate cell viability or growth via optical measurements.
(§2) From the measurements, the following values were determined: 1) the concentration of Compound 1 at which a tumor cell growth inhibition of 50% (relative to control) occurs (GI50), 2) the concentration of Compound 1 at which no growth occurs (total growth inhibition, TGI), and 3) the concentration of Compound 1 at which the […] (LC 50). […] FIG. 6 illustrates, graphically, tumor cell growth as a function of Compound 1 concentration of the scanned tumor cell lines.

HS 578T = details: for CC50 / GI50: Homo sapiens; for CC50: Hs-578T
Description: as §1, §2

MCF7 = details: for CC50 / GI50: Homo sapiens
Description: as §1, §2

MDA-MB-231/ATCC = details: for GI50 / CC50: Homo sapiens
Description: as §1, §2

MDA-MB-435 = details: for CC50 / GI50: Homo sapiens
Description: as §1, §2

NCI/ADR-RES = details: for GI50: Homo sapiens
Description: as §1, §2

T-47D = test system: T-47D
Description: as §1, §2

[1] = BT-549, Log10 conc -4.0 Moles/L
[2] = BT-549, Log10 conc -5.0 Moles/L
[3] = BT-549, Log10 conc -6.0 Moles/L
[4] = BT-549, Log10 conc -7.0 Moles/L
[5] = BT-549, Log10 conc -8.0 Moles/L
[6] = HS 578T, Log10 conc -4.0 Moles/L
[7] = HS 578T, Log10 conc -5.0 Moles/L
[8] = HS 578T, Log10 conc -6.0 Moles/L
[9] = HS 578T, Log10 conc -7.0 Moles/L
[10] = HS 578T, Log10 conc -8.0 Moles/L
[11] = MDA-MB-231/ATCC, Log10 conc -4.0 Moles/L
[12] = MDA-MB-231/ATCC, Log10 conc -5.0 Moles/L
[13] = MDA-MB-231/ATCC, Log10 conc -6.0 Moles/L
[14] = MDA-MB-231/ATCC, Log10 conc -7.0 Moles/L
[15] = MDA-MB-231/ATCC, Log10 conc -8.0 Moles/L
[16] = MDA-MB-435, Log10 conc -4.0 Moles/L
[17] = MDA-MB-435, Log10 conc -5.0 Moles/L
[18] = MDA-MB-435, Log10 conc -6.0 Moles/L
[19] = MDA-MB-435, Log10 conc -7.0 Moles/L
[20] = MDA-MB-435, Log10 conc -8.0 Moles/L

Structure (SMILES): CCCC1(CCC)CCC2(CCN(CCCN(CC)CC)C2)CC1.O=C(O)/C=C\C(=O)O.O=C(O)/C=C\C(=O)O [Compound 1, N,N,-diethyl-8,8-dipropyl-2-azaspiro[4,5]decane-2-propanamine dimaleate]
- TGI (BT-549; BT-549): 3.23 µM
- Log10 TGI (BT-549; BT-549 (so in the source)): −5.39
- Mean Optical Densities (BT-549; [1]): 0.007
- Percent Growth (BT-549; [1]): −98%
- Mean Optical Densities (BT-549; [2]): 0.027
- Percent Growth (BT-549; [2]): −94%
- Mean Optical Densities (BT-549; [3]): 0.856
- Percent Growth (BT-549; [3]): 98%
- Mean Optical Densities (BT-549; [4]): 0.904
- Percent Growth (BT-549; [4]): 109%
- Mean Optical Densities (BT-549; [5]): 0.859
- Percent Growth (BT-549; [5]): 98%
- CC50 (BT-549; Homo sapiens, BT-549, read-out: LC50): 5.89 µM
- GI50 (BT-549; Homo sapiens, BT-549, read-out: GI50): 1.77 µM
- GI50 (BT-549; Homo sapiens, BT-549 (so in the source), read-out: Log10 GI50 (converted)): 1.7 µM
- TGI (HS 578T; HS 578T): 3.96 µM
- Log10 TGI (HS 578T; HS 578T (so in the source)): −6.09
- Mean Optical Densities (HS 578T; [6]): 0.264
- Percent Growth (HS 578T; [6]): −62%
- Mean Optical Densities (HS 578T; [7]): 0.269
- Percent Growth (HS 578T; [7]): −61%
- Mean Optical Densities (HS 578T; [8]): 1.217
- Percent Growth (HS 578T; [8]): 91%
- Mean Optical Densities (HS 578T; [9]): 1.258
- Percent Growth (HS 578T; [9]): 98%
- Mean Optical Densities (HS 578T; [10]): 1.206
- Percent Growth (HS 578T; [10]): 89%
- CC50 (HS 578T; read-out: LC50): 8.43 µM
- CC50 (HS 578T; read-out: Log10 LC50 (converted)): 6.17 µM
- GI50 (HS 578T; HS 578T (so in the source), read-out: Log10 GI50 (converted)): 0.269 µM
- GI50 (HS 578T; HS 578T, read-out: GI50): 1.86 µM
- CC50 (MCF7; MCF7, read-out: LC50): 5.6 µM
- CC50 (MCF7; MCF7, read-out: Log10 LC50 (converted)): 5.62 µM
- GI50 (MCF7; MCF7, read-out: GI50): 1.33 µM
- GI50 (MCF7; MCF7, read-out: Log10 GI50 (converted)): 1.32 µM
- Log10 TGI (MCF7; MCF7): −5.56
- TGI (MCF7; MCF7): 2.73 µM
- Mean Optical Densities (MCF7; MCF7, Log10 conc -4.0 Moles/L): 0.051
- Percent Growth (MCF7; MCF7, Log10 conc -4.0 Moles/L): −70%
- Mean Optical Densities (MCF7; MCF7, Log10 conc -5.0 Moles/L): 0.017
- Percent Growth (MCF7; MCF7, Log10 conc -5.0 Moles/L): −90%
- Mean Optical Densities (MCF7; MCF7, Log10 conc -6.0 Moles/L): 0.996
- Percent Growth (MCF7; MCF7, Log10 conc -6.0 Moles/L): 70%
- Mean Optical Densities (MCF7; MCF7, Log10 conc -7.0 Moles/L): 1.339
- Percent Growth (MCF7; MCF7, Log10 conc -7.0 Moles/L): 99%
- Mean Optical Densities (MCF7; MCF7, Log10 conc -8.0 Moles/L): 1.311
- Percent Growth (MCF7; MCF7, Log10 conc -8.0 Moles/L): 96%
- GI50 (MDA-MB-231/ATCC; MDA-MB-231, MDA-MB-231/ATCC, read-out: GI50): 1.09 µM
- GI50 (MDA-MB-231/ATCC; MDA-MB-231, line printed "231/ATCC" (second line of the wrapped name), read-out: Log10 GI50 (converted)): 1.86 µM
- GI50 (MDA-MB-231/ATCC; MDA-MB-231, line printed "MDA-MB-" (first line of MDA-MB-231/ATCC), read-out: Log10 GI50 (converted)): 1.1 µM
- CC50 (MDA-MB-231/ATCC; MDA-MB-231, read-out: LC50, MDA-MB-231/ATCC): 5.18 µM
- CC50 (MDA-MB-231/ATCC; MDA-MB-231, read-out: Log10 LC50, line printed "231/ATCC" (second line of the wrapped name) (converted)): 8.51 µM
- CC50 (MDA-MB-231/ATCC; MDA-MB-231, read-out: Log10 LC50, line printed "MDA-MB-" (first line of MDA-MB-231/ATCC) (converted)): 5.13 µM
- TGI (MDA-MB-231/ATCC; MDA-MB-231/ATCC): 2.37 µM
- Mean Optical Densities (MDA-MB-231/ATCC; [11]): 0.038
- Percent Growth (MDA-MB-231/ATCC; [11]): −94%
- Mean Optical Densities (MDA-MB-231/ATCC; [12]): 0.053
- Percent Growth (MDA-MB-231/ATCC; [12]): −92%
- Mean Optical Densities (MDA-MB-231/ATCC; [13]): 0.839
- Percent Growth (MDA-MB-231/ATCC; [13]): 55%
- Mean Optical Densities (MDA-MB-231/ATCC; [14]): 0.863
- Percent Growth (MDA-MB-231/ATCC; [14]): 63%
- Mean Optical Densities (MDA-MB-231/ATCC; [15]): 0.897
- Percent Growth (MDA-MB-231/ATCC; [15]): 75%
- Log10 TGI (MDA-MB-231/ATCC; line printed "231/ATCC" (second line of the wrapped name)): −5.40
- Log10 TGI (MDA-MB-231/ATCC; line printed "MDA-MB-" (first line of MDA-MB-231/ATCC)): −5.63
- CC50 (MDA-MB-435; MDA-MB-435, read-out: LC50): 6.19 µM
- CC50 (MDA-MB-435; MDA-MB-435, read-out: Log10 LC50 (converted)): 5.89 µM
- GI50 (MDA-MB-435; MDA-MB-435, read-out: GI50): 0.267 µM
- GI50 (MDA-MB-435; MDA-MB-435 (so in the source), read-out: Log10 GI50 (converted)): 1.78 µM
- TGI (MDA-MB-435; MDA-MB-435): 0.807 µM
- Log10 TGI (MDA-MB-435; MDA-MB-435 (so in the source)): −5.49
- Mean Optical Densities (MDA-MB-435; [16]): 0.244
- Percent Growth (MDA-MB-435; [16]): −58%
- Mean Optical Densities (MDA-MB-435; [17]): 0.230
- Percent Growth (MDA-MB-435; [17]): −61%
- Mean Optical Densities (MDA-MB-435; [18]): 0.528
- Percent Growth (MDA-MB-435; [18]): −10%
- Mean Optical Densities (MDA-MB-435; [19]): 1.517
- Percent Growth (MDA-MB-435; [19]): 94%
- Mean Optical Densities (MDA-MB-435; [20]): 1.613
- Percent Growth (MDA-MB-435; [20]): 104%
- Log10 TGI (NCI/ADR-RES): −5.40
- TGI (NCI/ADR-RES): 3.95 µM
- GI50 (NCI/ADR-RES; read-out: GI50): 1.83 µM
- GI50 (NCI/ADR-RES; read-out: Log10 GI50 (converted)): 1.82 µM
- Mean Optical Densities (NCI/ADR-RES; Log10 conc -4.0 Moles/L): 0.081
- Percent Growth (NCI/ADR-RES; Log10 conc -4.0 Moles/L): −85%
- Mean Optical Densities (NCI/ADR-RES; Log10 conc -5.0 Moles/L): 0.208
- Percent Growth (NCI/ADR-RES; Log10 conc -5.0 Moles/L): −61%
- Mean Optical Densities (NCI/ADR-RES; Log10 conc -6.0 Moles/L): 1.220
- Percent Growth (NCI/ADR-RES; Log10 conc -6.0 Moles/L): 89%
- Mean Optical Densities (NCI/ADR-RES; Log10 conc -7.0 Moles/L): 1.227
- Percent Growth (NCI/ADR-RES; Log10 conc -7.0 Moles/L): 90%
- Mean Optical Densities (NCI/ADR-RES; Log10 conc -8.0 Moles/L): 1.254
- Percent Growth (NCI/ADR-RES; Log10 conc -8.0 Moles/L): 94%
- TGI (T-47D): 4.11 µM
- GI50 (T-47D; Homo sapiens, T47D): 1.71 µM
- Mean Optical Densities (T-47D; Log10 conc -4.0 Moles/L): 0.207
- Percent Growth (T-47D; Log10 conc -4.0 Moles/L): −38%
- Mean Optical Densities (T-47D; Log10 conc -5.0 Moles/L): 0.164
- Percent Growth (T-47D; Log10 conc -5.0 Moles/L): −51%
- Mean Optical Densities (T-47D; Log10 conc -6.0 Moles/L): 1.024
- Percent Growth (T-47D; Log10 conc -6.0 Moles/L): 81%
- Mean Optical Densities (T-47D; Log10 conc -7.0 Moles/L): 1.176
- Percent Growth (T-47D; Log10 conc -7.0 Moles/L): 98%
- Mean Optical Densities (T-47D; Log10 conc -8.0 Moles/L): 0.837
- Percent Growth (T-47D; Log10 conc -8.0 Moles/L): 59%
